Converted amounts (≈) assume the structure as drawn. One block for each molecule: values may come before it. Where a SMILES comes first, the peptide text is derived from it. The star is where a group is joined. X2 = CCC(C)CC(C)CCCC[C@@H](O)CC(=O)*
Assays:
Candida albicans [1] = assay: Antifungal activity against Candida albicans; format: functional, organism-based
Candida albicans [2] = assay: Antimicrobial activity against Candida albicans assessed as reduction of microbial microbial growth; format: functional
Aspergillus niger [3] = assay: Antimicrobial activity against Aspergillus niger incubated for 72 hrs by standard broth dilution method; format: functional
Botrytis cinerea [4] = assay: Antimicrobial activity against Botrytis cinerea incubated for 72 hrs by standard broth dilution method; format: functional
Colletotrichum acutatum [5] = assay: Antimicrobial activity against Colletotrichum acutatum incubated for 72 hrs by standard broth dilution method; format: functional
Rhizoctonia solani [6] = assay: Antimicrobial activity against Rhizoctonia solani incubated for 72 hrs by standard broth dilution method; format: functional
Candida albicans [7] = assay: Antimicrobial activity against Candida albicans incubated for 72 hrs by standard broth dilution method; format: functional
Saccharomyces cerevisiae [8] = assay: Antimicrobial activity against Saccharomyces cerevisiae incubated for 72 hrs by standard broth dilution method; format: functional
[9] = tested on: Colletotrichum gloeosporioides; assay: Antifungal activity against Colletotrichum gloeosporioides; format: functional
Aspergillus niger [10] = assay: Antifungal activity against Aspergillus niger; format: functional
Rhizoctonia solani [11] = assay: Antifungal activity against Rhizoctonia solani incubated for 48 hrs by standard broth dilution method; format: functional
Phytophthora capsici = assay: Antifungal activity against Phytophthora capsici incubated for 48 hrs by standard broth dilution method; format: functional
Botrytis cinerea [12] = assay: Antifungal activity against Botrytis cinerea incubated for 48 hrs by standard broth dilution method; format: functional
Colletotrichum acutatum [13] = assay: Antifungal activity against Colletotrichum acutatum incubated for 48 hrs by standard broth dilution method; format: functional
Saccharomyces cerevisiae [14] = assay: Antifungal activity against Saccharomyces cerevisiae; format: functional
[15] = Inhibition of Candida albicans CaCdr1p transporter assessed as reduction in rhodamine 6G efflux
[16] = Inhibition of Candida albicans CaCdr1p transporter ATPase activity
Candida albicans [17] = assay: Antifungal activity against Candida albicans assessed as fungal growth inhibition; format: functional
Gaeumannomyces graminis = assay: Antimicrobial activity against Gaeumannomyces graminis; format: functional

MIC (Candida albicans [1]): 1.56 µg/mL (≈ 3.29 µM)
SMILES: CC(C)[C@@H](C)[C@@H]1O[C@@H]1[C@@H](C)[C@H]1[C@@H](O)C[C@]2(O)C3=CC=C4C[C@@H](O)CC[C@]4(C)C3[C@H](O)C(=O)[C@]12C (stereo partly drawn)

IC50 (Candida albicans [1]): 4.14 µg/mL (≈ 1.99 µM)
SMILES: CCC/C=C\c1ccccc1/C=C/C(=O)N[C@H]1C(=O)N(C)/C(=C/c2ccc(O)cc2)C(=O)N[C@@H](CC(C)C)C(=O)N[C@H](Cc2ccccc2)C(=O)N[C@@H]([C@H](C)O)C(=O)N[C@@H](CC(N)=O)C(=O)N[C@@H](CO)C(=O)O[C@H](C)[C@@H](NC(=O)C/C=C2/C=CNC[C@H]2/C=C\CCC)C(=O)N(C)/C(=C/c2ccc(O)cc2)C(=O)N[C@@H](CC(C)C)C(=O)N[C@H](Cc2ccccc2)C(=O)N[C@@H]([C@H](C)O)C(=O)N[C@@H](CC(N)=O)C(=O)N[C@@H](CO)C(=O)O[C@@H]1C

MIC (Candida albicans [2]): 4 µg/mL
SMILES: C=C[C@@](C)(CC/C=C(\C)CC[C@]1(C)C(C=O)=CCC[C@H]1C)S(=O)(=O)CCNC(=N)N

SMILES: C[C@@H]1CCCCC/C=C/[C@H](O)C[C@@H](O)C/C=C\C=C\[C@@H](O[C@@H]2O[C@@H](CO)[C@H](O)[C@@H](O)[C@@H]2O)C/C=C/C=C\C(=O)O1
MIC (Aspergillus niger [3]): 0.02 µg/mL (≈ 0.0353 µM) | MIC (Botrytis cinerea [4]): 0.02 µg/mL (≈ 0.0353 µM) | MIC (Colletotrichum acutatum [5]): 0.02 µg/mL (≈ 0.0353 µM) | MIC (Rhizoctonia solani [6]): 0.02 µg/mL (≈ 0.0353 µM) | MIC (Candida albicans [7]): 0.02 µg/mL (≈ 0.0353 µM) | MIC (Saccharomyces cerevisiae [8]): 0.02 µg/mL (≈ 0.0353 µM)

MIC [9]: 1 µg/mL (≈ 4.23 µM)
SMILES: CC1=CC[C@]23C[C@H]1C[C@@](C)(O)[C@H]2[C@H](O)C[C@@H]3C

MIC (Aspergillus niger [10]): 1 µg/mL (≈ 4.92 µM)
SMILES: Cc1ccc(CC2CCC(=O)N2)c(C)c1 (stereo not drawn)

MIC (Rhizoctonia solani [11]): 0.01 µg/mL (≈ 0.014 µM) | MIC (Phytophthora capsici): 0.01 µg/mL (≈ 0.014 µM) | MIC (Botrytis cinerea [12]): 0.01 µg/mL (≈ 0.014 µM) | MIC (Colletotrichum acutatum [13]): 0.01 µg/mL (≈ 0.014 µM)
SMILES: CCC(C)CC(C)CCCC[C@@H](O)CC(=O)N[C@@H](CC(C)C)C(=O)N[C@@H](CCC(=O)O)C(=O)N[C@@H](CC(C)C)C(=O)N[C@@H](CC(C)C)C(=O)O (stereo partly drawn) (X2-LELL-OH)

MIC (Saccharomyces cerevisiae [14]): 0.22 µg/mL (≈ 0.765 µM)
SMILES: CCCCCCCCCCCC(=O)N(CCO)CCO

MIC (Candida albicans [1]): 2.48 µg/mL (≈ 3.49 µM)
SMILES: C[C@@H]1NC(=O)[C@@H](Cc2ccccc2)NC(=O)[C@@H](CO)NC(=O)c2ccccc2NC(=O)/C(=C\c2c[nH]c3ccccc23)NC(=O)[C@H]([C@@H](C)O)NC1=O

IC50 [15]: 3.74 µg/mL (≈ 5.64 µM) | IC50 [16]: 0.46 µg/mL (≈ 0.694 µM)
SMILES: CCCCC[C@@H]1CC(=O)N[C@@H](CC(C)C)C(=O)N[C@H](Cc2ccccc2)C(=O)N[C@@H](CC(C)C)C(=O)N[C@@H](Cc2ccccc2)C(=O)O1

MIC (Candida albicans [17]): 0.62 µg/mL (≈ 2.52 µM)
SMILES: CCCC[C@H](CC)C1NC(=O)c2ccccc2N1 (stereo partly drawn)

MIC (Candida albicans [2]): 0.5 µg/mL
SMILES: CC1=CCC[C@H](C)[C@@]1(C)CC/C(C)=C/CC/C(C)=C/CS(=O)(=O)CCNC(=N)N

MIC (Gaeumannomyces graminis): 0.25 µg/mL (≈ 0.64 µM)
SMILES: CS[C@@]12CC3=CC=C[C@H](O)[C@H]3N1C(=O)[C@@H]1C[C@@H]3C(=O)CC[C@@H](O)[C@@H]3N1C2=O

MIC (Aspergillus niger [3]): 0.02 µg/mL (≈ 0.0301 µM) | MIC (Botrytis cinerea [4]): 0.02 µg/mL (≈ 0.0301 µM) | MIC (Colletotrichum acutatum [5]): 0.02 µg/mL (≈ 0.0301 µM) | MIC (Rhizoctonia solani [6]): 0.02 µg/mL (≈ 0.0301 µM) | MIC (Candida albicans [7]): 0.02 µg/mL (≈ 0.0301 µM) | MIC (Saccharomyces cerevisiae [8]): 0.02 µg/mL (≈ 0.0301 µM)
SMILES: C[C@@H]1CCC/C=C/C=C/[C@H](O)C[C@@H](O)C/C=C\C=C\[C@@H](OC(=O)CCC(=O)O[C@H]2O[C@@H](CO)[C@H](O)[C@@H](O)[C@@H]2O)C/C=C/C=C\C(=O)O1

SMILES: CO[C@H]1/C=C/C=C/CCC[C@@H](C)OC(=O)/C=C\C=C\C[C@H](O[C@@H]2O[C@@H](CO)[C@@H](O)[C@H](O)[C@H]2O)/C=C/C=C\C[C@H](O)C1
MIC (Aspergillus niger [3]): 0.02 µg/mL (≈ 0.0346 µM) | MIC (Botrytis cinerea [4]): 0.02 µg/mL (≈ 0.0346 µM) | MIC (Colletotrichum acutatum [5]): 0.02 µg/mL (≈ 0.0346 µM) | MIC (Rhizoctonia solani [6]): 0.02 µg/mL (≈ 0.0346 µM) | MIC (Candida albicans [7]): 0.02 µg/mL (≈ 0.0346 µM) | MIC (Saccharomyces cerevisiae [8]): 0.02 µg/mL (≈ 0.0346 µM)

MIC (Candida albicans [17]): 0.62 µg/mL (≈ 2.54 µM)
SMILES: CCCC[C@H](CC)c1nc2ccccc2c(=O)[nH]1

MIC [9]: 0.125 µg/mL (≈ 0.449 µM)
SMILES: CC(=O)O[C@@H]1C[C@H](C)[C@@]23CC=C(C)[C@@H](C2)C[C@@](C)(O)[C@@H]13

MIC (Aspergillus niger [3]): 0.02 µg/mL (≈ 0.0494 µM) | MIC (Botrytis cinerea [4]): 0.02 µg/mL (≈ 0.0494 µM) | MIC (Colletotrichum acutatum [5]): 0.02 µg/mL (≈ 0.0494 µM) | MIC (Rhizoctonia solani [6]): 0.02 µg/mL (≈ 0.0494 µM) | MIC (Candida albicans [7]): 0.02 µg/mL (≈ 0.0494 µM) | MIC (Saccharomyces cerevisiae [8]): 0.02 µg/mL (≈ 0.0494 µM)
SMILES: C[C@@H]1CCCCC/C=C/[C@H](O)C[C@@H](O)C/C=C\C=C\[C@@H](O)C/C=C/C=C\C(=O)O1

MIC (Gaeumannomyces graminis): 0.25 µg/mL (≈ 0.55 µM)
SMILES: CS[C@@]12C[C@@H]3C(=O)CC[C@H](O)[C@@H]3N1C(=O)[C@]1(SC)C[C@H]3C(=O)CC[C@@H](O)[C@@H]3N1C2=O
